Source: patent US8389011B2, “Pharmaceutical compositions of cholesteryl ester transfer protein inhibitors” (Bend Research, Inc., priority 2000, dated 2013)
In brackets after ≈: the same amount, converted by molar mass. Where two headings read alike, the source gives them in different places. Values belong to the molecule of their own block, whether it stands above or below them.

Legend:
Solubility in water = assay type: physicochemical
Excerpt: The invention is useful for CETP inhibitors which have sufficiently low aqueous solubility, low bioavailability or slow rate of absorption such that it is desirable to increase their concentration in an aqueous environment of use. Therefore, anytime one finds it desirable to raise the aqueous concentration of the CETP inhibitor in a use environment, the invention will find utility.

[1] = In vitro dissolution test, microcentrifuge method, in model fasted duodenal solution (MFDS); assay type: physicochemical
Experimental: The compositions comprising the CETP inhibitor and concentration-enhancing polymer provide enhanced concentration of the dissolved CETP inhibitor in in vitro dissolution tests. It has been determined that enhanced drug concentration in in vitro dissolution tests in Model Fasted Duodenal (MFD) solution or Phosphate Buffered Saline (PBS) is a good indicator of in vivo performance and bioavailability. An appropriate PBS solution is an aqueous solution comprising 20 mM sodium phosphate (Na2HPO4), 47 mM potassium phosphate (KH2PO4), 87 mM NaCl, and 0.2 mM KCl, adjusted to pH 6.5 with NaOH. An appropriate MFD solution is the same PBS solution wherein additionally is present 7.3 mM sodium taurocholic acid and 1.4 mM of 1-palmitoyl-2-oleyl-sn-glycero-3-phosphocholine. In particular, a composition of the present invention can be dissolution-tested by adding it to MFD or PBS solution and agitating to promote dissolution.
A typical in vitro test to evaluate enhanced drug concentration in aqueous solution can be conducted by (1) adding with agitation a sufficient quantity of control composition, typically the CETP inhibitor alone, to the in vitro test medium, typically MFD or PBS solution, to achieve equilibrium concentration of the CETP inhibitor; (2) adding with agitation a sufficient quantity of test composition (e.g., the CETP inhibitor and polymer) in an equivalent test medium, such that if all the CETP inhibitor dissolved, the theoretical concentration of CETP inhibitor would exceed the equilibrium concentration of the CETP inhibitor by a factor of at least 10, and preferably a factor of at least 100; and (3) comparing the measured MDC and/or aqueous concentration versus time AUC of the test composition in the test medium with the equilibrium concentration, and/or the aqueous concentration versus time AUC of the control composition. In conducting such a dissolution test, the amount of test composition or control composition used is an amount such that if all of the CETP inhibitor dissolved the CETP inhibitor concentration would be at least 10-fold and preferably at least 100-fold that of the equilibrium concentration. Indeed, for some extremely insoluble CETP inhibitors, in order to identify the MDC achieved it may be necessary to use an amount of test composition such that if all of the CETP inhibitor dissolved, the CETP inhibitor concentration would be 10,000-fold or even more, that of the equilibrium concentration of the CETP inhibitor.
The concentration of dissolved CETP inhibitor is typically measured as a function of time by sampling the test medium and plotting CETP inhibitor concentration in the test medium vs. time so that the MDC can be ascertained. The MDC is taken to be the maximum value of dissolved CETP inhibitor measured over the duration of the test.
To avoid large CETP inhibitor particulates which would give an erroneous determination, the test solution is either filtered or centrifuged. “Dissolved CETP inhibitor” is typically taken as that material that either passes a 0.45 μm syringe filter or, alternatively, the material that remains in the supernatant following centrifugation. Filtration can be conducted using a 13 mm, 0.45 μm polyvinylidine difluoride syringe filter sold by Scientific Resources under the trademark TITAN®. Centrifugation is typically carried out in a polypropylene microcentrifuge tube by centrifuging at 13,000 G for 60 seconds. Other similar filtration or centrifugation methods can be employed and useful results obtained. For example, using other types of microfilters may yield values somewhat higher or lower (±10-40%) than that obtained with the filter specified above but will still allow identification of preferred dispersions. […]

[2] = aqueous solubility determined at about 22° C. unless otherwise specified, read-out: solubility in water
[3] = Table 9, Drug 2, receptor solution MFDS, TCmax 400 μg/mL (Examples 14-16: 100 μg/mL)

SMILES: CC(C)c1cc2c(c(-c3ccc(F)cc3)c1[C@@H](F)c1ccc(C(F)(F)F)cc1)[C@@H](O)CC1(CCC1)C2 [Drug 10, (4′S)-5′-(4-fluorophenyl)-6′-[(S)-fluoro[4-(trifluoromethyl)phenyl]methyl]-3′,4′-dihydro-7′-(1-methylethyl)-spiro[cyclobutane-1,2′(1′H)-naphthalen]-4′-ol]
solubility (Solubility in water; [2]): < 1 µg/mL

SMILES: CCOC(=O)N1c2cc(OC)c(OC)cc2[C@@H](N(Cc2cc(C(F)(F)F)cc(C(F)(F)F)c2)C(=O)OC)C[C@H]1C [Drug 4, [2R,4S]4-[(3,5-bis-trifluoromethyl-benzyl)-methoxycarbonyl-amino]-6,7-dimethoxy-2-methyl-3,4-dihydro-2H-quinoline-1-carboxylic acid ethyl ester]
solubility (Solubility in water; [2]): < 1 µg/mL

SMILES: COC(=O)N(Cc1cc(C(F)(F)F)cc(C(F)(F)F)c1)[C@@H]1C[C@H](C2CC2)N(C(=O)OC(C)C)c2ccc(C(F)(F)F)cc21 [Drug 1, [2R,4R]4-[(3,5-bis-trifluoromethyl-benzyl)-methoxycarbonyl-amino]-2-cyclopropyl-6-trifluoromethyl-3,4-dihydro-2H-quinoline-1-carboxylic acid isopropyl ester]
solubility (Solubility in water; [2]): < 1 µg/mL

SMILES: COC(=O)N(Cc1cc(C(F)(F)F)cc(C(F)(F)F)c1)[C@H]1C[C@@H](C2CC2)N(C(=O)OC(C)C)c2ccc(C(F)(F)F)cc21 [Drug 8, [2S,4S]4-[(3,5-bis-trifluoromethyl-benzyl)-methoxycarbonyl-amino]-2-cyclopropyl-6-trifluoromethyl-3,4-dihydro-2H-quinoline-1-carboxylic acid isopropyl ester]
solubility (Solubility in water; [2]): < 1 µg/mL

SMILES: CCOC(=O)N1c2cc3c(cc2[C@@H](N(Cc2cc(C(F)(F)F)cc(C(F)(F)F)c2)C(=O)OC)C[C@H]1C)CCC3 [Drug 6, [2R,4S]4-[(3,5-bis-trifluoromethyl-benzyl)-methoxycarbonyl-amino]-2-methyl-2,3,4,6,7,8-hexahydro-cyclopenta[g]quinoline-1-carboxylic acid ethyl ester]
solubility (Solubility in water; [2]): < 1 µg/mL

SMILES: COC(=O)N(Cc1cc(C(F)(F)F)cc(C(F)(F)F)c1)[C@@H]1C[C@H](C2CC2)N(C(=O)OC(C)C)c2ccc(C(F)(F)F)cc21 [Control 1, [2R,4R]4-[(3,5-bis-trifluoromethyl-benzyl)-methoxycarbonyl-amino]-2-cyclopropyl-6-trifluoromethyl-3,4-dihydro-2H-quinoline-1-carboxylic acid isopropyl ester]
Concentration ([1]; Table 2, Drug 1, MFDS, 37° C., 0 min, TCmax 100 μg/mL (Example 4: 500 μg/mL)): 0 ng/mL
Concentration ([1]; Table 2, Drug 1, MFDS, 37° C., 4 min, TCmax 100 μg/mL): <100 ng/mL
Concentration ([1]; Table 2, Drug 1, MFDS, 37° C., 10 min, TCmax 100 μg/mL (Example 4: 500 μg/mL)): 300 ng/mL
Concentration ([1]; Table 2, Drug 1, MFDS, 37° C., 20 min, TCmax 100 μg/mL): 300 ng/mL
Concentration ([1]; Table 2, Drug 1, MFDS, 37° C., 40 min, TCmax 100 μg/mL): 900 ng/mL
Concentration ([1]; Table 2, Drug 1, MFDS, 37° C., 90 min, TCmax 100 μg/mL (Example 4: 500 μg/mL)): 800 ng/mL
AUC ([1]; Table 2, Drug 1, MFDS, 37° C., to 0 min, TCmax 100 μg/mL (Example 4: 500 μg/mL)): 0 min-μg/mL
AUC ([1]; Table 2, Drug 1, MFDS, 37° C., to 4 min, TCmax 100 μg/mL): <0.1 min-μg/mL
AUC ([1]; Table 2, Drug 1, MFDS, 37° C., to 10 min, TCmax 100 μg/mL (Example 4: 500 μg/mL)): 1 min-μg/mL
AUC ([1]; Table 2, Drug 1, MFDS, 37° C., to 20 min, TCmax 100 μg/mL): 4 min-μg/mL
AUC ([1]; Table 2, Drug 1, MFDS, 37° C., to 40 min, TCmax 100 μg/mL): 16 min-μg/mL
AUC ([1]; Table 2, Drug 1, MFDS, 37° C., to 90 min, TCmax 100 μg/mL (Example 4: 500 μg/mL)): 57 min-μg/mL
AUC90 ([1]; Table 3, area under the aqueous concentration versus time curve during the 90-minute test, Drug 1, MFDS, TCmax 100 μg/mL (Example 4: 500 μg/mL)): 57 min-μg/mL
Cmax, 90 ([1]; Table 3, maximum concentration of Drug 1 in solution during the 90-minute test, MFDS, TCmax 100 μg/mL (Example 4: 500 μg/mL)): 900 ng/mL

Continued, values first:

solubility (Solubility in water; 22 °C, crystalline drug, read-out: solubility of crystalline Drug 2 (accurate measurements)): ~0.01 µg/mL (≈ 0.0167 µM)
solubility (Solubility in water; [2]): < 1 µg/mL
SMILES: CCOC(=O)N1c2ccc(C(F)(F)F)cc2[C@@H](N(Cc2cc(C(F)(F)F)cc(C(F)(F)F)c2)C(=O)OC)C[C@H]1CC [Drug 2, [2R,4S]4-[(3,5-bis-trifluoromethyl-benzyl)-methoxycarbonyl-amino]-2-ethyl-6-trifluoromethyl-3,4-dihydro-2H-quinoline-1-carboxylic acid ethyl ester]

solubility (Solubility in water; [2]): < 0.1 µg/mL
SMILES: CCCOC(=O)N1c2ccc(C(F)(F)F)cc2[C@@H](N(Cc2cc(C(F)(F)F)cc(C(F)(F)F)c2)C(=O)OC)C[C@H]1CC [Drug 3, [2R,4S]4-[(3,5-bis-trifluoromethyl-benzyl)-methoxycarbonyl-amino]-2-ethyl-6-trifluoromethyl-3,4-dihydro-2H-quinoline-1-carboxylic acid propyl ester]

solubility (Solubility in water; [2]): < 1 µg/mL
SMILES: CCOC(=O)N1c2cc(CC)c(CC)cc2[C@@H](N(Cc2cc(C(F)(F)F)cc(C(F)(F)F)c2)C(=O)OC)C[C@H]1C [Drug 5, [2R,4S]4-[(3,5-bis-trifluoromethyl-benzyl)-methoxycarbonyl-amino]-6,7-diethyl-2-methyl-3,4-dihydro-2H-quinoline-1-carboxylic acid ethyl ester]

Concentration ([1]; Table 8, Drug 2, receptor MFDS, 0 min, TCmax 400 μg/ml (Examples 14-16: 100 μg/ml)): 0 ng/mL
Concentration ([1]; Table 8, Drug 2, receptor MFDS, 4 min, TCmax 400 μg/ml): <1000 ng/mL
Concentration ([1]; Table 8, Drug 2, receptor MFDS, 10 min, TCmax 400 μg/ml (Examples 14-16: 100 μg/ml)): <1000 ng/mL
Concentration ([1]; Table 8, Drug 2, receptor MFDS, 20 min, TCmax 400 μg/ml (Examples 14-16: 100 μg/ml)): <1000 ng/mL
Concentration ([1]; Table 8, Drug 2, receptor MFDS, 40 min, TCmax 400 μg/ml (Examples 14-16: 100 μg/ml)): <1000 ng/mL
Concentration ([1]; Table 8, Drug 2, receptor MFDS, 90 min, TCmax 400 μg/ml (Examples 14-16: 100 μg/ml)): <1000 ng/mL
AUC ([1]; Table 8, Drug 2, receptor MFDS, to 0 min, TCmax 400 μg/ml (Examples 14-16: 100 μg/ml)): 0 min-μg/ml
AUC ([1]; Table 8, Drug 2, receptor MFDS, to 4 min, TCmax 400 μg/ml): <4 min-μg/ml
AUC ([1]; Table 8, Drug 2, receptor MFDS, to 10 min, TCmax 400 μg/ml (Examples 14-16: 100 μg/ml)): <10 min-μg/ml
AUC ([1]; Table 8, Drug 2, receptor MFDS, to 20 min, TCmax 400 μg/ml (Examples 14-16: 100 μg/ml)): <20 min-μg/ml
AUC ([1]; Table 8, Drug 2, receptor MFDS, to 40 min, TCmax 400 μg/ml (Examples 14-16: 100 μg/ml)): <40 min-μg/ml
AUC ([1]; Table 8, Drug 2, receptor MFDS, to 90 min, TCmax 400 μg/ml (Examples 14-16: 100 μg/ml)): <90 min-μg/ml
AUC90 [1, 3]: <90 min-μg/mL
Cmax, 90 [1, 3]: <1000 ng/mL
AUC90 ([1]; Table 22: Drug 2, MFD solution): <90 min-μg/mL
Cmax, 90 ([1]; Table 22: Drug 2, MFD solution): <1000 ng/mL
SMILES: CCOC(=O)N1c2ccc(C(F)(F)F)cc2[C@@H](N(Cc2cc(C(F)(F)F)cc(C(F)(F)F)c2)C(=O)OC)C[C@H]1CC [Control 3, [2R,4S]4-[(3,5-bis-trifluoromethyl-benzyl)-methoxycarbonyl-amino]-2-ethyl-6-trifluoromethyl-3,4-dihydro-2H-quinoline-1-carboxylic acid ethyl ester]

solubility (Solubility in water; [2]): < 1 µg/mL
SMILES: CCc1cc(Oc2cccc(N(Cc3cccc(OC(F)(F)C(F)F)c3)C[C@@H](O)C(F)(F)F)c2)ccc1Cl [Drug 11, (2R)-3-[[3-(4-chloro-3-ethylphenoxy)phenyl][[3-(1,1,2,2-tetrafluoroethoxy)phenyl]methyl]amino]-1,1,1-trifluoro-2-propanol]
